Source: PubChem BioAssay (NCI)
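Method: 48-hour compound exposure of cells in 96-well plates, five concentrations, linear interpolation of endpoints. TGI denotes the concentration required for complete inhibition of growth.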

Experiments:
Assay in all cases: NCI-60 cell line screen, 48 h
DU-145 prostate = tested on: DU-145 prostate
HS 578T breast = tested on: HS 578T breast
PC-3 prostate = tested on: PC-3 prostate
MALME-3M melanoma = tested on: MALME-3M melanoma
MOLT-4 leukemia = tested on: MOLT-4 leukemia
KM12 colon = tested on: KM12 colon
SW-620 colon = tested on: SW-620 colon
NCI-H226 lung = tested on: NCI-H226 lung
EKVX NSCLC = tested on: EKVX NSCLC
HCT-15 colon = tested on: HCT-15 colon
COLO 205 colon = tested on: COLO 205 colon
T-47D breast = tested on: T-47D breast
UO-31 renal = tested on: UO-31 renal
NCI/ADR-RES ovarian = tested on: NCI/ADR-RES ovarian
A549 NSCLC = tested on: A549 NSCLC
M14 melanoma = tested on: M14 melanoma
MCF7 breast = tested on: MCF7 breast
HCT-116 colon = tested on: HCT-116 colon
K-562 leukemia = tested on: K-562 leukemia
ACHN renal = tested on: ACHN renal
A498 renal = tested on: A498 renal
U251 CNS = tested on: U251 CNS
SNB-19 CNS = tested on: SNB-19 CNS
OVCAR-5 ovarian = tested on: OVCAR-5 ovarian
HT29 colon = tested on: HT29 colon
HOP-92 NSCLC = tested on: HOP-92 NSCLC
SF-268 CNS = tested on: SF-268 CNS
RXF 393 renal = tested on: RXF 393 renal
OVCAR-3 ovarian = tested on: OVCAR-3 ovarian
CAKI-1 renal = tested on: CAKI-1 renal
SK-MEL-28 melanoma = tested on: SK-MEL-28 melanoma
OVCAR-4 ovarian = tested on: OVCAR-4 ovarian
BT-549 breast = tested on: BT-549 breast
NCI-H522 lung = tested on: NCI-H522 lung
SN12C renal = tested on: SN12C renal
SK-MEL-2 melanoma = tested on: SK-MEL-2 melanoma
RPMI-8226 leukemia = tested on: RPMI-8226 leukemia
NCI-H23 lung = tested on: NCI-H23 lung
SK-MEL-5 melanoma = tested on: SK-MEL-5 melanoma
UACC-257 melanoma = tested on: UACC-257 melanoma
OVCAR-8 ovarian = tested on: OVCAR-8 ovarian
SF-295 CNS = tested on: SF-295 CNS
786-0 renal = tested on: 786-0 renal
TK-10 renal = tested on: TK-10 renal
HL-60(TB) leukemia = tested on: HL-60(TB) leukemia
LOX IMVI melanoma = tested on: LOX IMVI melanoma
UACC-62 melanoma = tested on: UACC-62 melanoma
HOP-62 NSCLC = tested on: HOP-62 NSCLC
CCRF-CEM leukemia = tested on: CCRF-CEM leukemia
SF-539 CNS = tested on: SF-539 CNS
MDA-MB-231 breast = tested on: MDA-MB-231 breast
IGROV1 ovarian = tested on: IGROV1 ovarian
MDA-MB-435 = tested on: MDA-MB-435
SR leukemia = tested on: SR leukemia
NCI-H460 lung = tested on: NCI-H460 lung
SNB-75 CNS = tested on: SNB-75 CNS
HCC-2998 colon = tested on: HCC-2998 colon
SK-OV-3 ovarian = tested on: SK-OV-3 ovarian

Measured: TGI

Cc1ccc2oc3c(c(Br)c(Br)n3C)c(=O)c2c1
32.1 µM: ACHN renal
89 µM: SK-MEL-2 melanoma
41.3 µM: A498 renal
47.2 µM: SF-295 CNS
52.3 µM: UACC-62 melanoma
37.3 µM: SF-539 CNS
51.5 µM: A549 NSCLC
30.3 µM: 786-0 renal
38.9 µM: TK-10 renal
32.9 µM: NCI-H226 lung
46.8 µM: OVCAR-3 ovarian
36 µM: SNB-19 CNS
52.5 µM: NCI/ADR-RES ovarian
31.4 µM: RXF 393 renal
46.3 µM: NCI-H23 lung
> 100 µM: DU-145 prostate | PC-3 prostate | MOLT-4 leukemia | KM12 colon | SW-620 colon | HCT-15 colon | COLO 205 colon | T-47D breast | M14 melanoma | MCF7 breast | K-562 leukemia | HT29 colon | SF-268 CNS | SK-MEL-28 melanoma | OVCAR-4 ovarian | BT-549 breast | NCI-H522 lung | RPMI-8226 leukemia | SK-MEL-5 melanoma | UACC-257 melanoma | HL-60(TB) leukemia | LOX IMVI melanoma | CCRF-CEM leukemia | IGROV1 ovarian | MDA-MB-435
43.5 µM: MDA-MB-231 breast
70.5 µM: MALME-3M melanoma
47 µM: SN12C renal
44.2 µM: EKVX NSCLC
33.9 µM: HCT-116 colon
35.8 µM: U251 CNS
99.7 µM: OVCAR-5 ovarian
38.1 µM: HOP-92 NSCLC
33.3 µM: HOP-62 NSCLC
31.9 µM: OVCAR-8 ovarian
27.5 µM: UO-31 renal
63.8 µM: CAKI-1 renal
65 µM: HS 578T breast

CCC(O)c1ccc(N=Cc2ccccc2O)cc1 (configuration not stated)
> 100 µM: DU-145 prostate | PC-3 prostate | MALME-3M melanoma | SR leukemia | MOLT-4 leukemia | KM12 colon | SW-620 colon | NCI-H226 lung | EKVX NSCLC | HCT-15 colon | COLO 205 colon | T-47D breast | UO-31 renal | NCI/ADR-RES ovarian | A549 NSCLC | M14 melanoma | MCF7 breast | NCI-H460 lung | HCT-116 colon | K-562 leukemia | ACHN renal | A498 renal | U251 CNS | SNB-19 CNS | OVCAR-5 ovarian | HT29 colon | HOP-92 NSCLC | SF-268 CNS | RXF 393 renal | OVCAR-3 ovarian | CAKI-1 renal | SK-MEL-28 melanoma | OVCAR-4 ovarian | SNB-75 CNS | BT-549 breast | NCI-H522 lung | SK-MEL-2 melanoma | RPMI-8226 leukemia | NCI-H23 lung | SK-MEL-5 melanoma | HCC-2998 colon | SF-295 CNS | 786-0 renal | TK-10 renal | HL-60(TB) leukemia | LOX IMVI melanoma | SK-OV-3 ovarian | UACC-62 melanoma | HOP-62 NSCLC | SF-539 CNS | MDA-MB-231 breast | IGROV1 ovarian | MDA-MB-435

CC1C2=C(CCCC2=O)N(c2ccc(Cl)cc2)C2=C1C(=O)CCC2
78.4 µM: RXF 393 renal
> 100 µM: HS 578T breast | PC-3 prostate | SR leukemia | MOLT-4 leukemia | KM12 colon | SW-620 colon | NCI-H226 lung | EKVX NSCLC | HCT-15 colon | UO-31 renal | NCI/ADR-RES ovarian | A549 NSCLC | M14 melanoma | MCF7 breast | NCI-H460 lung | K-562 leukemia | ACHN renal | A498 renal | U251 CNS | SNB-19 CNS | OVCAR-5 ovarian | HT29 colon | HOP-92 NSCLC | SF-268 CNS | OVCAR-3 ovarian | CAKI-1 renal | SK-MEL-28 melanoma | OVCAR-4 ovarian | SNB-75 CNS | BT-549 breast | SN12C renal | RPMI-8226 leukemia | NCI-H23 lung | SK-MEL-5 melanoma | HCC-2998 colon | OVCAR-8 ovarian | 786-0 renal | TK-10 renal | HL-60(TB) leukemia | LOX IMVI melanoma | SK-OV-3 ovarian | UACC-62 melanoma | CCRF-CEM leukemia | SF-539 CNS | IGROV1 ovarian
